{"source": "patent US5164376A", "about": "“Method for treating retroviral infections with aryl-(2-pyrryl) keytone compound” (Hoffmann-LaRoche Inc., priority 1990, dated 1992)", "key": {"HIV-1 NIT strain [1]": {"tested_on": "HIV-1 NIT strain", "assay": "inhibition of HIV-cytopathic effect in infected CD4+ CEM cells (live-cell count by trypan blue exclusion)", "format": "cell-based", "details": "MOI=1, 4 days, values only in FIG. II", "procedure": "(§1) FIGS. II Illustrates the anti-HIV activity of Compound II when tested according to the protocol set forth in Example 2. The open bars and the hatch bars are live-cell counts of infected and uninfected cells respectively. The filled circles are percentage of cell which were stained with antibody from AIDS patients. The duration of treatment for compound II was 4 days.\n(§2) High titer virus stocks (HIV-1 NIT strain) were grown in CD4^+ CR1O cells in RMPI-1640 media (Gibco Laboratories) supplemented with 10% fetal calf serum and 0.1 mg/ml Gentamicin. The collected media were filtered through a 0.8 Micron filter and virus isolates were concentrated 100 fold and stored at -80° C.\n(§3) CD4^+ CEM cells, propagated in the same medium, were incubated for 60 minutes at 37° C. with diluted stock virus at MOI=1. Cells were washed three times with phosphate buffered saline and resuspended in the medium at 2 x 10^5 cells/ml. Various quantities of Compound II were added. Four days after infection, numbers of live cells were counted by trypan blue exclusion [Mitsuya, et al. Proc. Natl. Acad. Sci. 83:1911 (1986)]. At the same time, aliquots of cells were fixed with acetone and stained with antibodies from AIDS patients, followed by a second staining with fluorescein-conjugated goat anti-human IgG (Cappel). […]"}, "TAT": {"tested_on": "TAT", "assay": "anti-TAT assay: SeAP reporter gene expression under control of HIV-LTR in COS cells co-transfected with TAT", "format": "cell-based", "details": "1, 10 and 100 μM added 24 h post transfection, assayed 48 h later, three independent assays, values only in FIG. I", "text": "FIG. I: Illustrates anti-TAT activity of Compound II. COS cells are co-transfected with TAT and Secreted Alkaline Phosphatase (SeAP) genes. The SeAP gene, under the control of the HIV-LTR (responsive to TAT activation) or the RSV-LTR (unresponsive to TAT action) serves as a monitor or reporter gene. SeAP activity in the HIV-LTR combination but not the RSV-LTR combination serves as a measure of TAT activity. Cells containing the RSV-LTR co-transfected gene combination serve as an indicator of the non-specific toxicity of added test compounds. The black bars represent the percent inhibition of SeAP activity by Compound II when the SeAP gene is under the control of HIV-LTR. The hatched bars represent the effect of […] on SeAP activity when the SeAP gene is regulated by RSV-LTR. […] The figure includes results from three separate assays.\nCompound II was tested for anti-TAT activity in an anti-TAT assay described in copending patent application Case Docket No. 8320 filed on the same day as the instant application and hereby incorporated by reference. […] The anti-TAT activity is measured by the percent inhibition of SeAP gene expression under the control of HIV-LTR."}, "HIV-1 NIT strain [2]": {"tested_on": "HIV-1 NIT strain", "assay": "inhibition of viral antigen production (percentage of cells stained with antibodies from AIDS patients)", "format": "cell-based", "details": "CEM cells, MOI=1, 4 days; values only in FIG. II", "procedure": "as §1, §2, §3"}, "COS cells": {"tested_on": "COS cells", "assay": "parallel cytotoxicity assay: SeAP gene expression under control of RSV-LTR (unresponsive to TAT) in COS cells", "format": "cell-based", "details": "values only in FIG. I", "description": "At 24 hours post transfection 1, 10, and 100 μM of test compound was added to the culture media of COS cells transfected with two plasmids, one containing the reporter gene which codes for Secreted Alkaline Phosphatase (SeAP) under control of HIV-LTR, and other containing the TAT gene also under control of HIV-LTR. The alkaline phosphatase activity of the media was assayed 48 hours after addition of test compound. […] The anti-TAT activity is measured by the percent inhibition of SeAP gene expression under the control of HIV-LTR."}, "HIV": {"tested_on": "HIV", "details": "most patients; cited from earlier work"}}, "note": "Entries after “also recorded” stand apart in the source; their conditions may differ."}
{"smiles": "NCC(=O)Nc1ccc(Cl)cc1C(=O)c1ccc[nH]1", "note": "[Compound II, 2-glycinamido-5-chlorophenyl (2-pyrryl) ketone]", "values": [{"measurement": "inhibition of HIV-cytopathic effect", "setting": "HIV-1 NIT strain [1]", "value": "inhibition of HIV-cytopathic effect"}, {"measurement": "anti-TAT activity (inhibition of SeAP gene expression under HIV-LTR)", "setting": "TAT", "value": "exhibits anti-TAT activity; also recorded: specific inhibitor of TAT"}, {"measurement": "inhibition of viral antigen production", "setting": "HIV-1 NIT strain [2]", "value": "inhibition of HIV-cytopathic effect and viral antigen production"}, {"measurement": "nonspecific toxicity (effect on SeAP activity under RSV-LTR)", "setting": "COS cells", "value": "does not exhibit nonspecific autotoxicity"}]}
{"smiles": "Nc1ccn([C@H]2CC[C@@H](CO)O2)c(=O)n1", "note": "[ddC]", "values": [{"measurement": "virustatic range (dose)", "setting": "HIV", "value": "0.005-0.25 mg/kg body weight"}]}
